Source: publication PMC9982066, “Inhibition of Ehrlichia chaffeensis infection by cell-permeable macrocyclic peptides that bind type IV secretion effector Etf-1” (PNAS Nexus, 2023)
Starred links: 1 amine or outer side, 2 acyl side, 3 side chain; linkers in the order of their positions; H or OH if unused. Positions of bridges follow the written chain, without caps; N, C: chain ends. Non-standard residues stand in square brackets, D forms with d. Residues, ends and D or L forms follow the SMILES beside them. *: point of attachment. 5FAM = O=C1OC2(c3ccc(O)cc3Oc3cc(O)ccc32)c2ccc(C(=O)*)cc21; Trimesoyl = O=C(c1cc(C(=O)[*:2])cc(C(=O)[*:3])c1)[*:1]; Phe(4-Cl) = N[C@@H](Cc1ccc(Cl)cc1)C(=O)O; Phe(4-F) = N[C@@H](Cc1ccc(F)cc1)C(=O)O; d2Nal = N[C@H](Cc1ccc2ccccc2c1)C(=O)O; βAsp = O=C(O)[C@H](CC(=O)[*:2])N[*:1]; Phg = N[C@H](C(=O)O)c1ccccc1; Dap = NC[C@H](N)C(=O)O; βAla = NCCC(=O)O

Experiments:
Etf-1 = Etf-1 (Ehrlichia chaffeensis, UniProt Q2GG12); assay: biochemical; type: binding; conditions: unlabeled competitor peptides vs FAM-B7-133-8
Description: Fig. 2. Determination of binding affinity of Etf-1-binding peptides by FP assay. […] FAM-labeled peptide (50 nM) was incubated with serially diluted Etf-1 (starting from 25–30 μM in PBS, pH 7.4, supplemented with 5 mM DTT and 0.01% Triton X-100) for 1 h at RT. FP values were measured on a Tecan Infinite M1000 Pro plate reader. Titration curves (n ≥ 3) were fitted using GraphPad Prism and analyzed with TraceDrawer to calculate dissociation constants (KD). […] Data were analyzed using GraphPad Prism and fitted to a four-parameter variable slope equation to determine IC50 values.
Serial dilutions of competitor peptide (0-20 μM) were prepared from DMSO stock solutions into PBS containing 0.01% Triton-X100 and 2 mM TCEP and added to aliquots of the equilibrated Etf-1/probe solution. After incubation for 1 h in the dark and with gentle mixing, 20 μL of each sample was transferred into 384-well black-on-black microplates and FP was measured using a TECAN Infinite M1000 plate reader. Data were analyzed using GraphPad PRISM ver. 8.0 and fit to a four-parameter variable slope equation to determine IC50 values. IC50 values reported are the mean ± SD of n = 2–4 independent experiments.

THP-1 cells = assay: CellTiter-Glo luminescent cell viability assay; conditions: 2-day treatment; for cell viability: 20 μM
Excerpt: THP-1 (human promyelocytic leukemia) cells are widely used as E. chaffeensis infection studies of human monocytes in vitro, since initial characterization of infection ([31]).
Fig. 4. Cytotoxicity and proteolytic stability of Etf-1-binding peptides. (A) Effect of Etf-1-binding peptides on the viability of THP-1 cells as determined by CellTiter-Glo luminescent assay. Relative luminescence was plotted as function of the peptide concentration, with the cell viability of DMSO control group set as 100%. (B) Plot of the amount of intact peptide remaining as a function of the incubation time in 25% human serum. All values are normalized to that of peptide at time 0 (100%).
Cytotoxicity of Etf-1-binding peptides was examined by CellTiter-Glo luminescent cell viability assay (Promega, Madison, WI, USA). THP-1 cells were seeded in a transparent 96-well plate at a density of 5 × 10^3 cells/well (100 μL in each well) in RPMI-1640 containing 10% FBS and 1% antibiotics and cultured overnight. Etf-1-binding peptides were serially diluted in DPBS from a DMSO stock and added to the cells with the final concentration of 0–25 μM and a constant final concentration of 0.5% DMSO (v/v). After incubation at 37°C with 5% CO2 for 46 h, the plate was removed and pre-equilibrated to RT before the addition of 100 μL of the CellTiter-Glo 2.0 reagent to each well. The plate was incubated for 15 min on a rotary shaker in the dark, and the luminescence was detected (1-s integration time) on a Tecan Infinite M1000 Pro microplate reader. Relative luminescence was plotted as function of the peptide concentration, with the cell viability of DMSO control group set as 100%.

E. chaffeensis [1] = assay: morphological examination of E. chaffeensis infection of THP-1 cells by Diff-Quik staining; conditions: for E. chaffeensis infection (numbers and sizes of morulae): THP-1 cells, Fig. S4 (with Figs. 5, S3)
Description: Ehrlichia chaffeensis Arkansas strain ([43]) was cultured in THP-1 cells (ATCC, Manassas, VA, USA) in RPMI 1640 medium (Corning, Manassas, VA, USA) supplemented with 8% FBS (Atlanta Biologicals, Flowery Branch, GA, USA) and 4 mM L-glutamine (at 37°C under 5% CO2 in a humidified atmosphere. THP-1 cells were seeded at 1 × 10^5 cells/well (in 1.5-mL RPMI 1640 culture medium with 8% FBS, 4 mM L-Gln) in a 12-well plate, then infected with host cell-free E. chaffeensis at an MOI (multiplicity of infection, or numbers of bacteria per cell) of ∼30. Cells were cultured in a humidified incubator with 5% CO2 and 95% air. No antibiotic was used throughout the study. At 0.5 h post infection (pi), cells were incubated with 1–10 μM of peptides or with an equal volume of DMSO (solvent control, 2 μL per mL medium). At 2 days pi, cells were washed with 1 mL of PBS, and two drops of cells were cytospun onto glass slides by a Shandon Cytospin 4 cytocentrifuge (Thermo Fisher Scientific), then fixed and stained with HEMA 3 staining solutions (Thermo Fisher Scientific). Ehrlichia infection was observed and images were captured by a SPOT RT digital camera (Diagnostic Instruments, Sterling Heights, MI, USA) coupled to a Nikon Eclipse E400 microscope (Nikon, Melville, NY, USA).

BECN1 binding to Etf-1 = assay: streptavidin magnetic beads pull-down of BECN1 with biotin-Etf-1, Western blot; type: biochemical; conditions: 10 µM peptide; for BECN1/Etf-1 Ratio: band intensities, DMSO control set as 1, Fig. 8B
Description: Fig. 8.
Streptavidin magnetic beads (15 µL, Pierce, Rockford, IL, USA) were washed with 1 mL of Bind/Wash buffer (25 mM Tris, pH 7.4; 250 mM NaCl, 0.1% Tween 20), and incubated with 0.15 µg ([…] final concentration) of biotinylated full-length Etf-1 protein in bind/wash buffer at 4°C overnight with end-to-end rotation. Beads were washed three times with Bind/Wash buffer, then incubated with Etf-1-binding macrocyclic peptides (10 µM) or DMSO control in Bind/Wash buffer at room temperature for 2 h. […] Beads were washed three times, and proteins were eluted from the beads with 50 µL of 2× SDS-sample buffer. […] Reacting bands were visualized with enhanced chemiluminescence by incubating the membrane with LumiGLO chemiluminescent reagent (Thermo Fisher Scientific). Images were captured by Amersham Imager 680 (GE Healthcare) and densitometry analysis was performed using ImagQuaNT (GE Healthcare). In each specimen, band intensities were normalized against those of actin as the loading control, and the ratios of the treatment group to the control group were calculated with the value in the control groups arbitrarily set as 1.0.

[2] = LDH release assay (plasma membrane damage); type: cell-based; conditions: Fig. S2
Description: LDH release assay (Promega) was performed to assess the level of plasma membrane damage in a cell population by these compounds. […] Control wells contained 10 μL of lysis buffer, cell-free complete growth media, or positive LDH control. Following incubation at 37°C and 5% CO2 for 45 to 75 min, the culture was centrifuged and 50 μL of the growth medium was withdrawn from each well, transferred to a clear 96-well plate, mixed with 50 μL of LDH substrate mixture, and incubated at RT for 30 min with gentle mixing. Finally, 50 μL of 1 N HCl was added to each well, and the absorbances at 490 and 680 nm were immediately measured on a Tecan Infinite M1000 plate reader. Relative membrane leakage was calculated and plotted using GraphPad Prism v8.0.

E. chaffeensis [3] = assay: E. chaffeensis infection of THP-1 cells, qPCR of 16S rRNA gene normalized to human actin; type: cell-based, Ehrlichia chaffeensis; conditions: 10 μM, 2 days, vs DMSO control
Description: Therefore, we investigated whether these Etf-1-binding peptides can prevent the proliferation of E. chaffeensis inside host cells. THP-1 cells were infected with E. chaffeensis, then treated with the peptides at 30 min post infection (pi) for 2 days. Intracellular infection and proliferation of E. chaffeensis inside host THP-1 cells were assessed using quantitative PCR (qPCR) analysis based on E. chaffeensis 16S rRNA gene normalized by human actin (ACT) gene.
Fig. 5. Effects of Etf-1-binding peptides on E. chaffeensis infection of THP-1 cells. Ehrlichia chaffeensis-infected THP-1 cells at […] were incubated with 10 μM of Etf-1-binding macrocyclic peptide or DMSO control for 2 days.
No antibiotic was used throughout the study.
DNA was extracted from each sample using Qiagen blood mini kit according to the manufacturer's instructions (Qiagen, Valencia, CA, USA), and qPCR analysis was performed in an MX3000P qPCR instrument (Stratagene, San Diego, CA, USA) using SYBR Green Real-Time PCR Master Mix (Thermo Fisher Scientific) according to the manufacturer's instructions. Five-fold serial dilutions of the control group were used to generate a standard curve to calculate the relative copy numbers of E. chaffeensis 16S rRNA normalized against human actin genes using the MX3000P software from Stratagene as described previously ([18], [44]).

Sequence of Etf-1 (Q2GG12 entry or part of it): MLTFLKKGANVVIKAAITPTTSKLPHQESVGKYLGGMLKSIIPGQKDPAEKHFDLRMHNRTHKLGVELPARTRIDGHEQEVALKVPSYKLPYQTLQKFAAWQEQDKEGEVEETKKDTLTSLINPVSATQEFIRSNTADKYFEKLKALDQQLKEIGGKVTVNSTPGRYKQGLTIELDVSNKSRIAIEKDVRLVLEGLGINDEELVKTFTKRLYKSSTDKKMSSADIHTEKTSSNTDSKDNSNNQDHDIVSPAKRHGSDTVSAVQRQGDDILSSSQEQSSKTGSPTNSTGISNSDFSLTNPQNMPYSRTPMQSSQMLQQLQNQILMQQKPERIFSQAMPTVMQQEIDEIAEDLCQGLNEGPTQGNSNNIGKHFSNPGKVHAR

Row | SMILES | competition for Etf-1 binding (Etf-1) | cell viability (THP-1 cells) | cytotoxicity (THP-1 cells; up to 10 μM) | E. chaffeensis infection (numbers and sizes of morulae) (E. chaffeensis [1]) | BECN1/Etf-1 Ratio (BECN1 binding to Etf-1) | release of lactate dehydrogenase (LDH) [2] | inhibition of E. chaffeensis infection (E. chaffeensis [3]) | cytotoxicity (cell lysis in treated groups) (E. chaffeensis [1]; THP-1 host cells) | disruption of BECN1 binding to Etf-1 (BECN1 binding to Etf-1; compared to DMSO control)
1 | CC(C)C[C@H]1NC(=O)C[C@@H](C(=O)O)NC(=O)[C@@H](Cc2ccc(O)cc2)NC(=O)[C@H](c2ccccc2)NC(=O)[C@H](CC(=O)O)NC(=O)[C@H](Cc2ccc(F)cc2)NC(=O)[C@H](Cc2ccc(O)cc2)NC(=O)c2cc3cc(c2)C(=O)NC[C@H](NC1=O)C(=O)N[C@@H](Cc1ccc(Cl)cc1)C(=O)N[C@H](Cc1ccc2ccccc2c1)C(=O)N[C@H](CCCNC(=N)N)C(=O)N[C@@H](CCCNC(=N)N)C(=O)N[C@H](CCCNC(=N)N)C(=O)N[C@@H](CCCNC(=N)N)C(=O)N[C@H](C(=O)NCCC(=O)NCCC(=O)N[C@@H](CCCCNC(=O)c1ccc2c(c1)C(=O)OC21c2ccc(O)cc2Oc2cc(O)ccc21)C(N)=O)CNC3=O [Peptide B7-131-4, TMA-Tyr-Fpa-Asp-Phg-tyr-isoAsp-leu-Dap-4-ClPhe-nal-arg-Arg-arg-Arg-Dap] (Y[Phe(4-F)]D[Phg][dY][βAsp][dL][Dap][Phe(4-Cl)][d2Nal][dR]R[dR]R[Dap][βAla][βAla]K(5FAM)-NH2; linker N-8-15 via Trimesoyl) | Competition for Etf-1 binding was observed | slightly reduced the cell viability | no cytotoxicity | only slightly reduced | 0.91 |  |  |  | 
2 | CC(C)C[C@H]1NC(=O)[C@H](C)NC(=O)[C@H](CC(=O)O)NC(=O)[C@@H](Cc2ccc3ccccc3c2)NC(=O)[C@H]2CCCN2C(=O)[C@H](Cc2c[nH]cn2)NC(=O)[C@H](Cc2ccc(O)cc2)NC(=O)c2cc3cc(c2)C(=O)NC[C@H](NC1=O)C(=O)N[C@@H](Cc1ccc(Cl)cc1)C(=O)N[C@H](Cc1ccc2ccccc2c1)C(=O)N[C@H](CCCNC(=N)N)C(=O)N[C@@H](CCCNC(=N)N)C(=O)N[C@H](CCCNC(=N)N)C(=O)N[C@@H](CCCNC(=N)N)C(=O)N[C@H](C(N)=O)CNC3=O [Peptide B7-131-5, TMA-Tyr-His-pro-nal-Asp-Ala-leu-Dap-4-ClPhe-nal-arg-Arg-arg-Arg-Dap] (YH[dP][d2Nal]DA[dL][Dap][Phe(4-Cl)][d2Nal][dR]R[dR]R[Dap]-NH2; linker N-8-15 via Trimesoyl) | Competition for Etf-1 binding was observed | greater loss of cell viability |  | significantly inhibited | 0.23 | significant release of lactate dehydrogenase | significantly inhibited | certain degrees of cytotoxicity | disrupted BECN1 binding to Etf-1
